# Assay results taken from ChEMBL document CHEMBL1136927, “Nonsteroidal selective androgen receptor modulators (SARMs): dissociating the anabolic and androgenic activities of the androgen receptor for therapeutic benefit” (J Med Chem, 2009).
# Key:
# [1] = Half life in human; assay type: ADME, organism-based; conditions: in vivo
# Rattus norvegicus [2] = species on record: Rattus norvegicus; experiment: Myotropic activity in rat assessed as levator ani muscle weight by Hershberger assay relative to intact tissue; assay type: functional
# Rattus norvegicus [3] = species on record: Rattus norvegicus; experiment: Myotropic activity in rat assessed as seminal vesicle weight by Hershberger assay relative to intact tissue; assay type: functional; conditions: for Emax: Rattus norvegicus, Seminal vesicle
# [4] = Oral bioavailability in rat at 10 mg/kg; assay type: ADME, organism-based; conditions: in vivo
# [5] = Volume of distribution at steady state in iv dosed rat; assay type: ADME, organism-based; conditions: in vivo, read-out: Vdss
# [6] = Terminal half life in iv dosed rat; assay type: ADME, organism-based; conditions: in vivo, read-out: beta t1/2 (converted)
# [7] = Clearance in iv dosed rat; assay type: ADME, organism-based; conditions: in vivo
# Rattus norvegicus [8] = species on record: Rattus norvegicus; experiment: Myotropic activity in rat assessed as ventral prostate weight by Hershberger assay relative to intact tissue; assay type: functional, Prostate gland
# Rattus norvegicus [9] = species on record: Rattus norvegicus; experiment: Myotropic activity in intact rat assessed as reduction in ventral prostate weight by Hershberger assay; assay type: functional, Prostate gland; parameters: scale not given: the % may be the effect or the level left
# Rattus norvegicus [10] = species on record: Rattus norvegicus; experiment: Restoration of lean body mass in intact rat; assay type: functional
# Androgen receptor = molecular target: T1, Androgen receptor (Homo sapiens, UniProt P10275)
# T1 sequence (P10275 whole entry): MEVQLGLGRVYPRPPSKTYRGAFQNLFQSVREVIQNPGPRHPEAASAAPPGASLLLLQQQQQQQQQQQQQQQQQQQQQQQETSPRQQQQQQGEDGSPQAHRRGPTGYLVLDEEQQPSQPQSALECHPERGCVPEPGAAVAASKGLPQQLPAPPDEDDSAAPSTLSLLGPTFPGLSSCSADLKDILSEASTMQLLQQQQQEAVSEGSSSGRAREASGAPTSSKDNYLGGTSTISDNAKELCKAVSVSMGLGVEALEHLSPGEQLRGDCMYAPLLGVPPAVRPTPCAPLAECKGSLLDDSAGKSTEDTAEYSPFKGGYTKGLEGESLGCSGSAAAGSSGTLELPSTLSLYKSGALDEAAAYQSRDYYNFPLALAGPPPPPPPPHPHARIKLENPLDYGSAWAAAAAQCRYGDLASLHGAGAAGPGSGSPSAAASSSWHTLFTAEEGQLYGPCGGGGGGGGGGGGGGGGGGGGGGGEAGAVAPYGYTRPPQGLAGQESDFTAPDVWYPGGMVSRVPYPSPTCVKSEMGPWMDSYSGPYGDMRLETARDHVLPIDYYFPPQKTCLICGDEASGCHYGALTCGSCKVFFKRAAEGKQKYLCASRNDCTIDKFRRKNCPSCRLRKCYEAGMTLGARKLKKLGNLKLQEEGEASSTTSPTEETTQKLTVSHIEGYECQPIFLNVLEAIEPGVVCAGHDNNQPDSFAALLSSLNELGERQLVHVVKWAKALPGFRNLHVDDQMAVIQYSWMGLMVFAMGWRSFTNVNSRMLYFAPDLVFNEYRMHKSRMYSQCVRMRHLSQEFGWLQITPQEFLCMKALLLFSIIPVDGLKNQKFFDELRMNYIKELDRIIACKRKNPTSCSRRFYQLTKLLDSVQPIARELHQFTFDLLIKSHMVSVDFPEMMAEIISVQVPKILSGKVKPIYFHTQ
# Description: Agonist activity at androgen receptor
# Rattus norvegicus [11] = experiment: Myotropic activity in rat assessed as ventral prostate weight by modified Hershberger assay at 3 mg/kg; assay type: functional; conditions: Prostate gland
# Rattus norvegicus [12] = species on record: Rattus norvegicus; experiment: Osteoanabolic effect in rat assessed as reduction in osteocalcin level relative to basal level; assay type: functional; parameters: scale not given: the % may be the effect or the level left
# Rattus norvegicus [13] = experiment: Myoanabolic activity in castrated rat assessed as restored soleus muscle strength at 3 mg/kg; assay type: functional
# Rattus norvegicus [14] = experiment: Myotropic activity in rat assessed as ventral prostate weight at 3 mg/kg administered in 12 week atrophy followed by 8 weeks treatment schedule by Hershberger assay; assay type: functional, Prostate gland
# Rattus norvegicus [15] = experiment: Myotropic activity in rat assessed as ventral prostate weight at 10 mg/kg by Hershberger assay; assay type: functional; conditions: Prostate gland
# Rattus norvegicus [16] = species on record: Rattus norvegicus; experiment: Myotropic activity in rat assessed as levator ani muscle weight at 10 mg/day by Hershberger assay relative to intact tissue; assay type: functional
# Rattus norvegicus [17] = experiment: Myotropic activity in rat assessed as ventral prostate weight at 100 mg/kg by Hershberger assay; assay type: functional; conditions: Prostate gland
# [18] = Oral bioavailability in dog; assay type: ADME, organism-based, Canis lupus familiaris; conditions: in vivo
# Rattus norvegicus [19] = experiment: Myoanabolic activity in castrated rat assessed as restored soleus muscle strength at 10 mg/kg; assay type: functional
# Rattus norvegicus [20] = species on record: Rattus norvegicus; experiment: Myotropic activity in rat assessed as levator ani muscle weight at 3 mg/day by modified Hershberger assay relative to intact tissue; assay type: functional
# Rattus norvegicus [21] = species on record: Rattus norvegicus; experiment: Suppression of hyphalamic-pituitary-gonadal axis in rat; assay type: functional
# Rattus norvegicus [22] = experiment: Suppression of hyphalamic-pituitary-gonadal axis in rat at 3 mg/kg; assay type: functional
# Rattus norvegicus [23] = experiment: Suppression of hyphalamic-pituitary-gonadal axis in rat assessed as reduction in follicle-stimulating hormone level at 30 mg/kg; assay type: functional
# Rattus norvegicus [24] = experiment: Myotropic activity in rat assessed as ventral prostate weight by modified Hershberger assay at 10 mg/kg; assay type: functional; conditions: Prostate gland
# Rattus norvegicus [25] = species on record: Rattus norvegicus; experiment: Myotropic activity in rat assessed as levator ani muscle weight at 30 mg/day by Hershberger assay relative to intact tissue; assay type: functional
# Rattus norvegicus [26] = experiment: Myotropic activity in rat assessed as ventral prostate weight at 30 mg/kg by Hershberger assay; assay type: functional; conditions: Prostate gland
# Rattus norvegicus [27] = species on record: Rattus norvegicus; experiment: Myotropic activity in rat assessed as ventral prostate weight at 0.3 mg/day by Hershberger assay; assay type: functional, Prostate gland
# Rattus norvegicus [28] = species on record: Rattus norvegicus; experiment: Reduction in testes weight in intact rat at 5 ug/day; assay type: functional, Testis; parameters: scale not given: the % may be the effect or the level left
# [29] = Rattus norvegicus, Levator ani muscle
# [30] = Rattus norvegicus, Prostate gland
# [31] = Rattus norvegicus, Levator ani muscle, read-out: ED50
# [32] = Rattus norvegicus, Prostate gland, read-out: ED50
smiles,measurement,setting,value
C[C@](O)(CS(=O)(=O)c1ccc(F)cc1)C(=O)Nc1ccc(C#N)c(C(F)(F)F)c1 [(R)-BICALUTAMIDE],half-life,[1],140 h
C[C@](O)(COc1ccc(F)cc1)C(=O)Nc1ccc([N+](=O)[O-])c(C(F)(F)F)c1,ED50,Rattus norvegicus [2],0.44 mg/day
same,Emax,Rattus norvegicus [2]; [29],75%
same,ED50,Rattus norvegicus [3],0.38 mg/day
same,Emax,Rattus norvegicus [3],13.4%
same,bioavailability,[4],55%
same,Vd,[5],1.5 L/kg
same,half-life,[6],3.6 h
same,clearance,[7],3.6 mL/min/kg
same,ED50,Rattus norvegicus [8],0.42 mg/day
same,Emax,Rattus norvegicus [8]; [30],14.9%
C=C[C@@](O)(c1nc2cc(Cl)c(Cl)cc2[nH]1)C(F)(F)F,Activity,Rattus norvegicus [9],46%
same,Activity,Rattus norvegicus [10],20%
same,Emax,Rattus norvegicus [2]; [29],101%
same,ED50,Rattus norvegicus [2]; [31],0.8 mg/kg
same,Ki,Androgen receptor,1.1 nM
same,Emax at 3 mg/kg,Rattus norvegicus [11],21%
CC(=O)Nc1ccc(SC[C@](C)(O)C(=O)Nc2ccc(C#N)c(C(F)(F)F)c2)cc1 [ACETOTHIOLUTAMIDE],Activity,Rattus norvegicus [3],50%
same,Activity,Rattus norvegicus [8],20%
C[C@]12CCC(=O)C[C@@H]1CC[C@@H]1[C@@H]2CC[C@]2(C)[C@@H](O)CC[C@@H]12 [STANOLONE],Activity,Rattus norvegicus [12],50%
same,Activity,Rattus norvegicus [13],138 kN/m2
same,Activity,Rattus norvegicus [14],200%
C[C@]12CC[C@H]3[C@@H](CCC4=CC(=O)CC[C@@]43C)[C@@H]1CC[C@@H]2O [TESTOSTERONE],ED50,Rattus norvegicus [2],0.15 mg/day
same,Emax,Rattus norvegicus [2]; [29],104%
same,ED50,Rattus norvegicus [8],0.13 mg/day
same,Emax,Rattus norvegicus [8]; [30],120%
Cc1c(N2C(=O)[C@@H]3[C@H](O)CCN3S2(=O)=O)ccc(C#N)c1Cl,Emax at 10 mg/kg,Rattus norvegicus [15],8%
same,Emax,Rattus norvegicus [16],68%
C[C@@H]1CC[C@H]([C@@H](O)C(F)(F)F)N1c1ccc2[nH]c(=O)cc(C(F)(F)F)c2c1 [LGD-2941],Emax at 10 mg/kg,Rattus norvegicus [15],100%
same,Emax,Rattus norvegicus [16],180%
CC[C@@H]1COc2c(ccc3[nH]c(=O)cc(C(F)(F)F)c23)N1CC(F)(F)F,Emax at 100 mg/kg,Rattus norvegicus [17],80%
same,ED50,Rattus norvegicus [2],70 mg/day
same,Emax,Rattus norvegicus [16],100%
CC(=O)Nc1ccc(OC[C@](C)(O)C(=O)Nc2ccc([N+](=O)[O-])c(C(F)(F)F)c2)cc1,bioavailability,[18],91%
same,ED50,Rattus norvegicus [2],0.14 mg/day
same,Emax,Rattus norvegicus [2]; [29],101%
same,Activity,Rattus norvegicus [12],70%
same,ED50,Rattus norvegicus [3],0.55 mg/day
same,Emax,Rattus norvegicus [3],28.5%
same,bioavailability,[4],100%
same,Vd,[5],0.42 L/kg
same,half-life,[6],2.6 h
same,Activity,Rattus norvegicus [13],120 kN/m2
same,clearance,[7],1 mL/min/kg
same,Activity,Rattus norvegicus [14],20%
same,ED50,Rattus norvegicus [8],0.43 mg/day
same,Emax,Rattus norvegicus [8]; [30],35.2%
same,Activity,Rattus norvegicus [19],156 kN/m2
C[C@@]12CC(C(F)(F)F)=NN1[S+]([O-])N(c1ccc(C#N)c(C(F)(F)F)c1)C2=O (some centres not stated),Emax,Rattus norvegicus [20],117%
same,Emax at 3 mg/kg,Rattus norvegicus [11],58%
Cc1c(N2C(=O)[C@@H]3[C@H](O)CCN3C2=O)ccc(C#N)c1Cl,Emax,Rattus norvegicus [2]; [29],125%
same,ED50,Rattus norvegicus [2]; [31],0.009 mg/kg
same,Emax,Rattus norvegicus [8]; [30],105%
same,ED50,Rattus norvegicus [8]; [32],0.14 mg/kg
same,ED50,Rattus norvegicus [21],0.008 mg/kg
C[C@@]12CC(C(F)(F)F)=NN1C(=O)N(c1ccc(C#N)c(C(F)(F)F)c1)C2=O,ED50,Rattus norvegicus [2],2.9 mg/day
same,Emax,Rattus norvegicus [2]; [29],75%
same,Emax at 3 mg/kg,Rattus norvegicus [11],11%
O=c1cc(C(F)(F)F)c2cc(N(CC(F)(F)F)CC(F)(F)F)ccc2[nH]1,Emax at 100 mg/kg,Rattus norvegicus [17],100%
same,Emax at 3 mg/kg,Rattus norvegicus [22],100%
same,Emax,Rattus norvegicus [2]; [29],150%
C[C@@]1(C(=O)Nc2ccc(C#N)c(C(F)(F)F)c2)CC(C(F)(F)F)=NN1,ED50,Rattus norvegicus [2]; [31],3.8 mg/kg
same,Emax at 30 mg/kg,Rattus norvegicus [23],40%
same,Emax at 10 mg/kg,Rattus norvegicus [24],26%
same,Emax,Rattus norvegicus [16],100%
CN(C)C1CC(C(C)(C)CO)Nc2ccc([N+](=O)[O-])cc21 (configuration not stated),Emax,Rattus norvegicus [25],115%
same,Emax at 30 mg/kg,Rattus norvegicus [26],80%
C[C@](O)(COc1ccc(Cl)c(F)c1)C(=O)Nc1ccc(C#N)c(C(F)(F)F)c1,Activity,Rattus norvegicus [27],79.4%
same,Emax,Rattus norvegicus [2]; [29],139%
same,ED50,Rattus norvegicus [3],0.41 mg/day
same,Emax,Rattus norvegicus [3],144%
same,bioavailability,[4],96%
same,Vd,[5],0.66 L/kg
same,half-life,[6],11.9 h
same,clearance,[7],0.87 mL/min/kg
same,ED50,Rattus norvegicus [8],0.43 mg/day
same,Emax,Rattus norvegicus [8]; [30],138%
same,Activity,Rattus norvegicus [28],94%
CC[C@H]1[C@@H]2[C@@H](O)CCN2C(=O)N1c1ccc(C#N)c(Cl)c1C,Emax,Rattus norvegicus [2]; [29],120%
same,ED50,Rattus norvegicus [2]; [31],0.09 mg/kg
same,Emax,Rattus norvegicus [8]; [30],65%
same,ED50,Rattus norvegicus [8]; [32],4.6 mg/kg
N#Cc1ccc(N2[C@@H]3CC[C@H]2C[C@@H](O)C3)c2ccccc12,Emax,Rattus norvegicus [2]; [29],66%
same,ED50,Rattus norvegicus [2]; [31],17.3 mg/kg
same,Emax at 30 mg/kg,Rattus norvegicus [26],27%
same,ED50,Rattus norvegicus [21],2.8 mg/kg
same,Emax,Rattus norvegicus [21],117%
CCC(=O)O[C@H]1CC[C@H]2[C@@H]3CCC4=CC(=O)CC[C@]4(C)[C@H]3CC[C@]12C [TESTOSTERONE PROPIONATE],Emax,Rattus norvegicus [2]; [29],104%
same,ED50,Rattus norvegicus [3],0.12 mg/day
same,Emax,Rattus norvegicus [3],70%
same,ED50,Rattus norvegicus [8],0.13 mg/day
same,Emax,Rattus norvegicus [8]; [30],120%
C[C@]12CC(C(F)(F)F)=NN1C(N)=N/C2=N\c1ccc(C#N)c(C(F)(F)F)c1,Activity,Rattus norvegicus [9],26%
same,Emax,Rattus norvegicus [2]; [29],91%
same,ED50,Rattus norvegicus [2]; [31],2.8 mg/kg
same,Emax,Rattus norvegicus [8]; [30],31%
same,ED50,Rattus norvegicus [8]; [32],> 30 mg/kg
